Assay results published in US7964599B2, “Therapeutic compounds” (Allergan, Inc., priority 2008, dated 2011).

How the values were obtained:
Format in all cases: in vivo
normotensive dogs = test: Intraocular pressure reduction in normotensive dogs; details: change from baseline
Description: (§1) Compounds such as those described in the above are tested in vivo to measure its ability to reduce intraocular pressure. Compound 1 is tested in normotensive dogs.

[1] = tested on: laser-induced hypertensive monkeys; test: Intraocular pressure reduction in laser-induced hypertensive monkeys; details: change from baseline
Description: [The source words this procedure for another organism and reports this organism under the same test.] as §1

[2] = tested on: lashes and adjacent hairs of patients; test: Eyelash/hair growth observed in glaucoma patients treated in one eye; details: glaucoma patient treated in only one eye
Excerpt: In the course of treating patients having glaucoma, treatment may only be appropriate in one eye. […] The lash appearance on the lids of the treated eyes would have appeared quite attractive if it represented a bilateral phenomenon. As a result of its asymmetric nature, the long lashes on one side could be construed as disturbing from a cosmetic standpoint. A systemic examination was preformed as a result of the asymmetric phenomenon. It soon became apparent that this altered appearance was not an isolated finding. […] Definite differences could be identified to varying degrees in the lashes and adjacent hairs of all patients who were taking the drug on a unilateral basis for longer than 6 months.
The changes in the lashes were apparent on gross inspection in several patients once attention was focused on the issue. In those with light colored hair and lashes, the differences were only seen easily with the aid of the high magnification and lighting capabilities of the slit lamp biomicroscope. In the course of glaucoma follow-up examination, attention is generally immediately focused on the eye itself. As a result of the high power magnification needed only one eye is seen at a time and the eye is seen at a high enough power that the lashes are not in focus. […]

Compound: CCCCCC(O)c1ccc([C@H]2C(O)C[C@@H](Cl)[C@@H]2C/C=C\CCCC(=O)OCCN2CCOCC2)cc1 (stereo partly drawn) [Compound 7]
- intraocular pressure (IOP) (normotensive dogs): decreases from baseline
- IOP [1]: decreases from baseline

Compound: CCCCCC(=O)c1ccc([C@H]2C(O)C[C@@H](Cl)[C@@H]2C/C=C\CCCC(=O)OCCN2CCOCC2)cc1 (stereo partly drawn) [Compound 8]
- intraocular pressure (IOP) (normotensive dogs): decreases from baseline
- IOP [1]: decreases from baseline

Compound: CCCCCC(=O)c1ccc([C@H]2C(=O)C[C@@H](Cl)[C@@H]2C/C=C\CCCC(=O)OCCN2CCOCC2)cc1 [Compound 5]
- intraocular pressure (IOP) (normotensive dogs): decreases from baseline
- IOP [1]: decreases from baseline

Compound: (Z)-7-[(1R,2S,3R,5R)-5-Chloro-2-(4-hexanoyl-phenyl)-3-hydroxy-cyclopentyl]-hept-5-enoic acid methyl ester [Compound 2]
- intraocular pressure (IOP) (normotensive dogs): decreases from baseline
- IOP [1]: decreases from baseline

Compound: (Z)-7-{(1R,2S,3R,5R)-5-Chloro-3-hydroxy-2-[4-(1-hydroxy-hexyl)-phenyl]-cyclopentyl}-hept-5-enoic acid methyl ester [Compound 1]
- intraocular pressure (IOP) (normotensive dogs): decreases from baseline
- IOP [1]: decreases from baseline

Compound: (Z)-7-[(1R,2S,3R,5R)-5-Chloro-2-(4-hexanoyl-phenyl)-3-hydroxy-cyclopentyl]-hept-5-enoic acid [Compound 3]
- intraocular pressure (IOP) (normotensive dogs): decreases from baseline
- IOP [1]: decreases from baseline

Compound: CCNC(=O)CCC/C=C\C[C@@H]1[C@@H](/C=C/[C@@H](O)CCc2ccccc2)[C@H](O)C[C@@H]1O [bimatoprost]
- lash appearance in treated eye versus non-treated eye [2]: longer, thicker, and fuller

Compound: CCCCCC(O)c1ccc([C@H]2C(=O)C[C@@H](Cl)[C@@H]2C/C=C\CCCC(=O)OCCN2CCOCC2)cc1 (stereo partly drawn) [Compound 6]
- intraocular pressure (IOP) (normotensive dogs): decreases from baseline
- IOP [1]: decreases from baseline
